Tests used:
[1] = Solubility in water and methanol
CO-treated RBCs = assay: Time-course CO removal from CO-treated RBCs (absorbance at 420 nm); format: cell-based, bovine; conditions: quiescent suspension of CO-poisoned RBCs in buffered dithionite solution, 1 equiv of 6 (reduced in situ to 7)
Procedure: Time-Course CO Removal From CO-Treated RBCs Defibrinated bovine blood (Hemostat Laboratories) was diluted with PBS containing 5.7 mM sodium dithionite. CO was bubbled through this suspension for 5 s. This mixture was centrifuged for 30 s at 760×g. The supernatant was discarded, and the pellet was washed with PBS containing 5.7 mM sodium dithionite. This washing was repeated three more times to remove excess CO. An aliquot of the stock suspension of CO-treated RBCs was added to a quartz cuvette containing 1 mL of DI water to lyse the cells. The concentration of COHb was assessed by measuring the absorbance at 420 nm (ε=10^5.63) of this lysate. For time-course CO removal, an aliquot of the stock suspension of CO-treated RBCs was diluted to 1 mL with PBS containing 5.7 mM sodium dithionite. A full equivalent of compound 6 (which is reduced in situ to 7) was added, the suspension was rapidly mixed, and absorbance at 420 nm was monitored continuously (FIG. 12).

Row | Molecule | solubility in water and methanol [1] | time to essentially complete reaction (decrease of COHb absorbance at 420 nm) (CO-treated RBCs)
1 | O=S(=O)([O-])c1cc(-c2ccccc2)c(-c2c3nc(c(-c4c(-c5ccccc5)cc(S(=O)(=O)[O-])cc4-c4ccccc4)c4ccc([nH]4)c(-c4c(-c5ccccc5)cc(S(=O)(=O)[O-])cc4-c4ccccc4)c4nc(c(-c5c(-c6ccccc6)cc(S(=O)(=O)[O-])cc5-c5ccccc5)c5ccc2[nH]5)C=C4)C=C3)c(-c2ccccc2)c1.[Na+].[Na+].[Na+].[Na+] [Compound 2-3a, sodium 5,10,15,20-tetrakis(2,6-diphenyl-4-(sulfonato)phenyl)porphyrin] | readily dissolved | 
2 | 5,10,15,20-tetrakis(2,6-di(3,5-difluoro)phenyl-4-(trimethylsilyl) phenyl) porphyrin [Compound 2-2b] | completely insoluble | 
3 | C[Si](C)(C)c1cc(-c2ccccc2)c(-c2c3nc(c(-c4c(-c5ccccc5)cc([Si](C)(C)C)cc4-c4ccccc4)c4ccc([nH]4)c(-c4c(-c5ccccc5)cc([Si](C)(C)C)cc4-c4ccccc4)c4nc(c(-c5c(-c6ccccc6)cc([Si](C)(C)C)cc5-c5ccccc5)c5ccc2[nH]5)C=C4)C=C3)c(-c2ccccc2)c1 [Compound 2-2a, 5,10,15,20-tetrakis(2,6-diphenyl-4-(trimethylsilyl)phenyl) porphyrin] | completely insoluble | 
4 | Sodium 5,10,15,20-tetrakis(2,6-diphenyl-4-(sulfonate)phenyl)porphyrinatohydroxoiron(III) [Compound 6] |  | ≤ 3 min
5 | O=S(=O)([O-])c1cc(-c2cc(F)cc(F)c2)c(-c2c3nc(c(-c4c(-c5cc(F)cc(F)c5)cc(S(=O)(=O)[O-])cc4-c4cc(F)cc(F)c4)c4ccc([nH]4)c(-c4c(-c5cc(F)cc(F)c5)cc(S(=O)(=O)[O-])cc4-c4cc(F)cc(F)c4)c4nc(c(-c5c(-c6cc(F)cc(F)c6)cc(S(=O)(=O)[O-])cc5-c5cc(F)cc(F)c5)c5ccc2[nH]5)C=C4)C=C3)c(-c2cc(F)cc(F)c2)c1.[Na+].[Na+].[Na+].[Na+] [Compound 2-3b, sodium 5,10,15,20-tetrakis(2,6-di(3,5-difluoro)phenyl-4-(sulfonato)phenyl)porphyrin] | readily dissolved | 
